Laboratory results from patent US6046329A, “Uracil derivatives” (Byk Gulden Lomberg Chemische Fabrik GmbH, priority 1994, dated 2000).

Assays:
5-HT1A receptor = target: T1, 5-HT1A receptor (Sus scrofa, UniProt A0A4X1UTF5); experiment: Radioligand binding with [3H]8-OH-DPAT, affinity for 5-HT1A receptor; details: membranes from pig brain cortex, IC50 corrected according to Cheng and Prusoff; for Ki: read-out: Receptor affinity 5-HT1A, expressed in pKI values (converted)
T1 construct: membranes from pig brain cortex; from tissue; host or cells: pig brain cortex membranes
T1 sequence (A0A4X1UTF5 1-422): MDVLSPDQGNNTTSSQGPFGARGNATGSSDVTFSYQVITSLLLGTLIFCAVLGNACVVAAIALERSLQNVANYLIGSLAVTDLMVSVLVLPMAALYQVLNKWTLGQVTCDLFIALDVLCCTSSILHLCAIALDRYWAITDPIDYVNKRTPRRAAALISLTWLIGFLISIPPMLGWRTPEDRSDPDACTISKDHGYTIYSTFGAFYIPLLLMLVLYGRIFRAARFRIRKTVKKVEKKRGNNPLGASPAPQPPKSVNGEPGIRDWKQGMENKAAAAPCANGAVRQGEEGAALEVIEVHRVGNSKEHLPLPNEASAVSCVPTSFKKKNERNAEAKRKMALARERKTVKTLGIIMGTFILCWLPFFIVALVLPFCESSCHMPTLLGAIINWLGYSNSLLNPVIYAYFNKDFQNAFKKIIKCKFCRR
Protocol: The affinity of substances for the 5-HT1A receptor was determined in radioligand binding studies using [^3 H]8-OH-DPAT as a radioligand. 50-150 μg of membranes from pig brain cortex were incubated in a total volume of 0.25-0.5 ml with [^3 H]8-OH-DPAT (0.2 to 0.4 nmol/l) in the presence of rising concentrations of substances. The incubation buffer used was 50 mmol/l tris/HCl pH 8.2, 1 mmol/l MnCl2. The nonspecific binding was determined in separate batches in the presence of 10 μmol/l of 5-HT. After 30 min at 23° C., the bound radioactivity was separated from the free radioactivity by rapid filtration of the incubation batch at 0° C. through glass fiber filters. The filters were washed twice with 3.5 ml each of cold filtration buffer (50 mmol/l tris/HCl pH 7.4, 10 mmol/l MgCl2, 10% polyethylene glycol 6000). The filter-bound radioactivity was determined by liquid scintillation counting.
(§1) For each substance, dose-response curves were plotted by means of nonlinear regression using the Inplot program (GraphPad, Sorento, Calif., USA). IC50 values were corrected by the concentration of the radioligand employed according to the formula of Cheng and Prusoff. The resulting KI values (see following table) represent the affinity of the respective substance for the tested receptor. The compounds according to the invention investigated according to the model illustrated in greater detail above have been provided in the following table with numbers which correspond to the numbers of these compounds in the examples.

α1B receptor = target: T2, α1B receptor (Rattus norvegicus, UniProt P15823); experiment: Radioligand binding with [3H]prazosine (in the presence of WB 4101), affinity for α1B receptor subtype; details: membranes from rat brain cortex, subtype-selective substances tested again in the presence of 3 nmol/l WB 4101, Cheng and Prusoff; for Ki: read-out: Receptor affinity α1B, expressed in pKI values (converted)
T2 construct: membranes from rat brain cortex; from tissue; host or cells: rat brain cortex membranes
T2 sequence (P15823 1-515): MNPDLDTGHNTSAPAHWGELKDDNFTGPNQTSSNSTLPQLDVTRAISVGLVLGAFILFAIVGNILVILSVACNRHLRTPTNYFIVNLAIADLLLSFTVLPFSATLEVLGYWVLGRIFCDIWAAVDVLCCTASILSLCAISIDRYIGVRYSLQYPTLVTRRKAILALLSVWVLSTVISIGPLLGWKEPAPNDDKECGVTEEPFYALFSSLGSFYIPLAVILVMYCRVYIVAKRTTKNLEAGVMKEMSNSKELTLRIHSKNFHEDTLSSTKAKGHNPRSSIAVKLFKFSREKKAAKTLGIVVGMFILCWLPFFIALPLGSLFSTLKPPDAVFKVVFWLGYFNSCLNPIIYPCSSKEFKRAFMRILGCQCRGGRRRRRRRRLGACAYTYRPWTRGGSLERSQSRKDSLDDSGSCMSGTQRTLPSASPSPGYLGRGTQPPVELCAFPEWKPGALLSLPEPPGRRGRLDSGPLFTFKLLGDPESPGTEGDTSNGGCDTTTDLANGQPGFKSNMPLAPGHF
Protocol: (§2) The affinity of substances for α1 receptor subtypes was determined in radioligand binding studies using [^3 H]prazosine as a radioligand. 50-200 μg of membranes from rat brain cortex were incubated in a total volume of 0.5-1 ml with [^3 H]prazosine (0.2 to 0.5 nmol/l) in the presence of rising concentrations of substances. The incubation buffer used was 50 mmol/l tris/HCl pH 7.5, 1 mmol/l EDTA, 0.1 mmol/l PMSF. The nonspecific binding was determined in separate batches in the presence of 10 μmol/l of phentolamine or 1 μmol/l of prazosine. After 1 h at 37° C., the bound radioactivity was separated from the free radioactivity by rapid filtration of the incubation batch at 0° C. through glass fiber filters. The filters were washed twice with 3.5 ml each of cold filtration buffer (50 mmol/l tris/HCl pH 7.4, 10 mmol/l MgCl2, 10% polyethylene glycol 6000). The filter-bound radioactivity was determined by liquid scintillation counting. Substances with subtype selectivity for the α1 receptor subtypes were tested again in the presence of 3 nmol/l of WB 4101. WB4101 blocks the binding of [^3 H]prazosine to the α1A receptor subtype and the remaining binding corresponds to that to the α1B receptor.
as §1

α1A receptor = target: T3, α1A receptor (Rattus norvegicus, UniProt P43140); experiment: Radioligand binding with [3H]prazosine, affinity for α1A receptor subtype; details: membranes from rat brain cortex, IC50 corrected according to Cheng and Prusoff; for Ki: read-out: Receptor affinity α1A, expressed in pKI values (converted)
T3 construct: membranes from rat brain cortex; from tissue; host or cells: rat brain cortex membranes
T3 sequence (P43140 1-466): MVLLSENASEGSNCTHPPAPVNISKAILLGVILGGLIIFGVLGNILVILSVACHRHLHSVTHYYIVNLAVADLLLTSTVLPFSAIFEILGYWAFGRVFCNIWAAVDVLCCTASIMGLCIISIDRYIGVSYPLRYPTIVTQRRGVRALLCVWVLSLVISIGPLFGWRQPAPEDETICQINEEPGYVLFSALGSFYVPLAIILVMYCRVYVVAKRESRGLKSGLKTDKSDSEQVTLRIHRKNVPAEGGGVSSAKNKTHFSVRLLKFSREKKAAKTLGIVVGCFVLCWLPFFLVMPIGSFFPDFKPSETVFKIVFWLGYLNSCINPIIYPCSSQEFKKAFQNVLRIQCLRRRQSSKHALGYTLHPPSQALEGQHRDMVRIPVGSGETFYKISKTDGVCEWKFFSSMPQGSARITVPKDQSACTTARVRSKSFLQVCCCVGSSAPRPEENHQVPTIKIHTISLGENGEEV
Protocol: as §2, §1

SMILES: COc1cc(Br)c(Br)cc1N1CCN(CCCNc2c(C)c(=O)n(C)c(=O)n2C)CC1 [Compound 1, 1,3,5-Trimethyl-6-[[3-[4-(3,4-dibromo-6-methoxy-phenyl)-1-piperazinyl]propyl]amino]-2,4(1H,3H)-pyrimidinedione]
- Ki (5-HT1A receptor): 1.26 nM
- Ki (α1B receptor): 5.01 nM
- Ki (α1A receptor): 5.01 nM

SMILES: COc1ccccc1N1CCN(CCCNc2c(Cc3c(NCCCN4CCN(c5ccccc5OC)CC4)n(C)c(=O)n(C)c3=O)c(=O)n(C)c(=O)n2C)CC1 [Compound 2]
- Ki (5-HT1A receptor): 12.6 nM
- Ki (α1B receptor): 0.398 nM
- Ki (α1A receptor): 0.398 nM

SMILES: CCOc1ccccc1N1CCN(CCCNc2c(CCC#N)c(=O)n(C)c(=O)n2C)CC1 [Compound 3, 5-Cyanoethyl-1,3-dimethyl-6-[[3-[4-(2-ethoxyphenyl)-1-piperazinyl]propyl]amino]-2,4(1H,3H)-pyrimidinedione]
- Ki (5-HT1A receptor): 0.398 nM
- Ki (α1B receptor): 63.1 nM
- Ki (α1A receptor): 0.501 nM

SMILES: CCOc1cc(F)ccc1N1CCN(CCCNc2c(Cc3c(NCCCN4CCN(c5ccc(F)cc5OCC)CC4)n(C)c(=O)n(C)c3=O)c(=O)n(C)c(=O)n2C)CC1 [Compound 4, Bis[1,3-dimethyl-6-[[3-[4-(2-ethoxy-4-fluorophenyl)-1-piperazinyl]propyl]amino]-2,4(1H,3H)-pyrimidinedione-5,5'-yl]methane]
- Ki (5-HT1A receptor): 39.8 nM
- Ki (α1B receptor): 1 nM
- Ki (α1A receptor): 1 nM

SMILES: COc1ccccc1N1CCN(CCCNC(=O)c2cc(=O)n(C)c(=O)n2C)CC1 [Compound 5, 1,3-Dimethyl-2,4(1H,3H)-pyrimidinedione-6-carboxylic acid [[3-[4-(2-methoxyphenyl)-1-piperazinyl]propyl]amide]]
- Ki (5-HT1A receptor): 2.51 nM
- Ki (α1B receptor): 251 nM
- Ki (α1A receptor): 5.01 nM

SMILES: Cc1c(NCCCN2CCN(c3ccccc3OC(F)(F)C(F)F)CC2)n(C)c(=O)n(C)c1=O [Compound 6, 1,3,5-Trimethyl-6-[[3-[4-(2-tetrafluoro-ethoxyphenyl)-1-piperazinyl]-propyl]amino]-2,4(1H,3H)-pyrimidinedione]
- Receptor affinity 5-HT1A, expressed in pKI values (5-HT1A receptor): 9.7
- Receptor affinity α1B, expressed in pKI values (α1B receptor): 7.5
- Receptor affinity α1A, expressed in pKI values (α1A receptor): 9.4

SMILES: C=CCc1c(NCCCN2CCN(c3ccc(F)cc3OCC)CC2)n(C)c(=O)n(C)c1=O [Compound 7, 5-Allyl-1,3-dimethyl-6-[[3-[4-(2-ethoxy-4-fluorophenyl)-1-piperazinyl]propyl]amino]-2,4(1H,3H)-pyrimidinedione]
- Ki (5-HT1A receptor): 0.794 nM
- Ki (α1B receptor): 39.8 nM
- Ki (α1A receptor): 0.631 nM

SMILES: Cn1c(NCCCN2CCN(c3ccccc3OC(F)(F)C(F)F)CC2)c(CCC#N)c(=O)n(C)c1=O [Compound 8]
- Receptor affinity 5-HT1A, expressed in pKI values (5-HT1A receptor): 10.0
- Receptor affinity α1B, expressed in pKI values (α1B receptor): 7.5
- Receptor affinity α1A, expressed in pKI values (α1A receptor): 9.2

SMILES: Cc1c(NCCCN2CCN(c3cccc4c3OCC(CO)O4)CC2)n(C)c(=O)n(C)c1=O (stereo not drawn) [Compound 9, 1,3,5-Trimethyl-6-[[3-[4-((2,3-dihydro-2-hydroxymethyl)-1,4-benzodioxin-5-yl)-1-piperazinyl]propyl]amino]-2,4(1H,3H)-pyrimidinedione]
- Ki (5-HT1A receptor): 0.2 nM
- Ki (α1B receptor): 1580 nM
- Ki (α1A receptor): 2 nM

SMILES: Cn1c(NCCCN2CCN(c3cccc4c3OCC(CO)O4)CC2)c(Cc2c(NCCCN3CCN(c4cccc5c4OCC(CO)O5)CC3)n(C)c(=O)n(C)c2=O)c(=O)n(C)c1=O (stereo not drawn) [Compound 10, Bis[1,3-dimethyl-6-[[3-[4-((2,3-dihydro-2-hydroxymethyl)-1,4-benzodioxin-5-yl)-1-piperazinyl]propyl]amino]-2,4(1H,3H)-pyrimidinedione-5,5'-yl]methane]
- Ki (5-HT1A receptor): 0.501 nM
- Ki (α1B receptor): 7.94 nM
- Ki (α1A receptor): 7.94 nM

SMILES: C=CCc1c(NCCCN2CCN(c3ccccc3OC(F)(F)C(F)F)CC2)n(C)c(=O)n(C)c1=O [Compound 11, 5-Allyl-1,3-dimethyl-6-[[3-[4-(2-tetrafluoro-ethoxyphenyl)-1-piperazinyl]propyl]amino]-2,4(1H,3H)-pyrimidinedione]
- Receptor affinity 5-HT1A, expressed in pKI values (5-HT1A receptor): 9.3
- Receptor affinity α1B, expressed in pKI values (α1B receptor): 7.9
- Receptor affinity α1A, expressed in pKI values (α1A receptor): 9.6

SMILES: CCOC(=O)c1c(NCCCN2CCN(c3ccccc3OC)CC2)n(C)c(=O)n(C)c1=O [Compound 12, 1,3-Dimethyl-5-ethoxycarbonyl-6-[[3-[4-(2-methoxyhenyl)-1-piperazinyl]propyl]amino]-2,4(1H,3H)-pyrimidinedione]
- Ki (5-HT1A receptor): 6.31 nM
- Ki (α1B receptor): 25.1 nM
- Ki (α1A receptor): 25.1 nM

SMILES: Cc1c(NCCCN2CCN(c3ccccc3O)CC2)n(C)c(=O)n(C)c1=O [Compound 13, 1,3,5-Trimethyl-6-[[3-[4-(2-hydroxyphenyl)-1-piperazinyl]propyl]amino]-2,4(1H,3H)-pyrimidinedione]
- Ki (5-HT1A receptor): 0.251 nM
- Ki (α1B receptor): 20 nM
- Ki (α1A receptor): 20 nM

SMILES: COc1cc([N+](=O)[O-])ccc1N1CCN(CCCNc2c(C)c(=O)n(C)c(=O)n2C)CC1 [Compound 14, 1,3,5-Trimethyl-6-[[3-[4-(2-methoxy-4-nitrophenyl)-1-piperazinyl]propyl]amino]-2,4(1H,3H)-pyrimidinedione]
- Ki (5-HT1A receptor): 200 nM
- Ki (α1B receptor): 251 nM
- Ki (α1A receptor): 251 nM

SMILES: CON=Cc1c(NCCCN2CCN(c3ccccc3OC)CC2)n(C)c(=O)n(C)c1=O [Compound 15, 1,3-Dimethyl-5-methoxyiminomethyl-6-[[3-[4-(2-methoxyohenyl)-1-piperazinyl]propyl]amino]-2,4(1H,3H)-pyrimidinedione]
- Ki (5-HT1A receptor): 1.58 nM
- Ki (α1B receptor): 126 nM
- Ki (α1A receptor): 5.01 nM

SMILES: COc1ccccc1N1CCN(CCCNc2c(C=NO)c(=O)n(C)c(=O)n2C)CC1 [Compound 16, 1,3-Dimethyl-5-hydroxyiminomethyl-6-[[3-[4-(2-methoxphenyl)-1-piperazinyl]propyl]amino]-2,4(1H,3H)-pyrimidinedione]
- Ki (5-HT1A receptor): 1 nM
- Ki (α1B receptor): 50.1 nM
- Ki (α1A receptor): 2 nM
